The values that follow come from publication PMC8243547 (BMC Complementary Medicine and Therapies, 2021).

≈ marks a conversion by molar mass, not a printed value. Where “and” joins values, the source holds several entries; their conditions need not be identical. Equal values may be shown once. Read-outs that look alike come from different tables or passages of the source.

For series [1], the system named is chloroquine-sensitive 3D7 strain of P. falciparum. The series can be described thus: SYBR green I fluorescence-based antiplasmodial assay, Pf3D7. The settings on record: Plasmodium falciparum. Format: cell-based. How it is done: (§1) The cytotoxicity assay was performed using the African green monkey normal kidney Vero cells (ATCC CRL 1586) and murine macrophages Raw 264.7 cells (ATCC #TIB-71) obtained from the American Type Culture Collection (ATCC).
(§2) The culture medium was renewed daily to propagate the culture. Thin blood smears were made and stained with 10% Giemsa solution for 10 min and microscopically examined under oil immersion to monitor cell cycle transition and parasitaemia.
(§3) Before each experiment, synchronized ring stage parasites were obtained by 5% sorbitol (w/v) treatment as previously described.
(§4) The parasite susceptibility was determined in 96-well microtitration plates using the SYBR green I fluorescence-based method with some modifications. Briefly, sorbitol-synchronized ring stage parasites (hematocrit: 1.5%, parasitemia: 1%) were incubated in the presence of two-fold diluted extracts (0.78-100 μg/mL, DMSO 0.5%), fractions (0.39-50 μg/mL, DMSO 0.5%) or compounds (0.15-20 μg/mL, DMSO 0.5%). […] Drug-free culture wells in 0.5% DMSO were considered as positive growth controls. After 72 h of incubation, 50 μL of SYBR Green I lysis solution [Tris (20 mM; pH 7.5) (Sigma–Aldrich), EDTA (5 mM) (Sigma–Aldrich), saponin (0.008%, w/v) (Sigma–Aldrich), Triton X-100 (0.08%, v/v) (Sigma–Aldrich) and SYBR Green (2x) (Life technologies)] were added to each well and the plate was incubated in the dark at 37 °C for 30 min. SYBR green I fluorescence was measured using a Fluoroskan Ascent multi-well plate reader (Thermo scientific) with excitation and emission wavelength bands set at 485 and 538 nm, respectively. […] The resistance indices (RI), defined as the ratio of the EC50 of drug-resistant strain to the EC50 of sensitive strain were calculated.
(§5) Microsoft Excel Software was used to calculate the percentage of inhibition. The EC50 and CC50 values for the in vitro antiplasmodial activity were determined by non-linear regression analysis using GraphPad Prism 5.0 Software.

Series [2] has as its system multi-resistant Dd2 strain of P. falciparum. The series can be described thus: SYBR green I fluorescence-based antiplasmodial assay, PfDd2. As to conditions: Plasmodium falciparum. Type of series: cell-based. As for the experimental part:
as §1, §2, §3, §4, §5

The next series in a line: in vitro. The settings on record: African green monkey. How it is done: as §1
(§6) The cytotoxicity of active natural products was assessed according to the protocol described by. The African green monkey normal kidney Vero cells (ATCC CRL 1586) and murine macrophages Raw 264.7 cells (ATCC #TIB-71) were maintained in T-25 flasks (Corning Incorporated, USA) using complete Dulbecco’s Modified Eagle’s Medium (Sigma-Aldrich, Germany), supplemented with, 10% Fetal Bovine Serum (Sigma-Aldrich, Germany), 0.2% sodium bicarbonate (w/v) (Sigma-Aldrich, Germany) and 1% (v/v) Penicillin-Streptomycin (Sigma-Aldrich, Germany). The cells were kept at 37 °C for 72 h in 5% CO2 incubator, and the medium was renewed each 72 h and the cell density monitored under the inverted fluorescent microscope Etaluma 520 (Etaluma, USA) until the formation of a monolayer. Confluent culture (nearly 90%) was trypsinized (0.05% Trypsin-EDTA, Sigma-Aldrich, Germany), then centrifuged at 1800 rpm for 5 min and the resulting pellet was re-suspended in culture medium. Cells at 10^4cells per well were seeded (100 μL) in 96-well culture plates (Costar, USA) and incubated overnight to allow cell adhesion. Thereafter, 10 μL of serially diluted extracts, fractions (≤200 μg/mL), and compounds (≤50 μg/mL) were added to plate wells in duplicate. The plates were incubated in a humidified and 5% CO2 atmosphere at 37 °C for 48 h. Podophyllotoxin at 20 μM was added as positive control and wells containing untreated cells were included as 100% growth control. Ten microliters of resazurin stock solution (0.15 mg/mL in sterile PBS), were added to each well, and incubated for an additional 4 h. Fluorescence was then read using a Magelan Infinite M200 fluorescence multi-well plate reader (Tecan) with excitation and emission wavelengths at 530 and 590 nm, respectively. The percentage of cell viability was calculated with regard to the negative control, and subsequently used to determine the concentration that reduced 50% of cell viability (CC50) by non-linear regression using the GraphPad Prism software version 5.0 (San Diego, California) as described above. Selectivity indices (SI = CC50/EC50, defining the balance between cytotoxicity and antiplasmodial activity) were calculated for each test substance.
as §5

Series [3] concerns African green monkey normal kidney Vero cells. The series can be described thus: Resazurin-based cytotoxicity assay, Vero cells. The settings on record: over Vero and Raw 264.7 cells and Pf3D7 and PfDd2 strains. How it is done:
as §1, §6, §5
On the technique in general: Alamar Blue is a resazurin reagent that responds to reducing activity.

A short description of series [4]: Resazurin-based cytotoxicity assay, Raw 264.7 cells. As to conditions: mouse. As for the experimental part:
as §1
as §6, with “Podophyllotoxin at 20 μM was added as positive control and wells containing untreated cells were included as 100% growth control. Ten microliters of resazurin stock solution (0.15 mg/mL in sterile PBS), were added to each well, and incubated for an additional 4 h.” left out, “The percentage of cell viability was calculated with regard to the negative control, and subsequently used to determine the concentration that reduced 50% of cell viability (CC50) by non-linear regression using the GraphPad Prism software version 5.0 (San Diego, California) as described above.” left out
as §5

In series [5] the test system is chloroquine sensitive poW strain of P. falciparum. More on the design: method as in PMID 12064726. The settings on record: read-out: EC50 against chloroquine sensitive poW strain; cited from earlier work.
Series [6] concerns multi-resistant Dd2 strain of P. falciparum. More on the design: method as in PMID 12064726. As to conditions: read-out: EC50 against multi-resistant Dd2 strain; cited from earlier work.
For series [7], the system named is chloroquine sensitive strain Pf3D7. More on the design: method as in PMID 18710482. As to conditions: read-out: EC50 against chloroquine sensitive strain Pf3D7; cited from earlier work.
Series [8] concerns chloroquine resistant strain Pf7G8. Further details: method as in PMID 18710482. The settings on record: read-out: EC50 against chloroquine resistant strain Pf7G8; cited from earlier work.
The subject of series [9] is chloroquine-sensitive strain D10 of P. falciparum. Further details: method as in PMID 21503279. The settings on record: cited from earlier work.
Series [10] has as its system resistant strain W2 of P. falciparum. More on the design: method as in PMID 21503279. As to conditions: cited from earlier work.
Another series deals with P. berghei. As to conditions: murine malaria model, cited from earlier work.
Another series concerns FabI. More on the design: method as in PMID 16722653. The settings on record: enzyme of fatty acid biosynthesis of P. falciparum; read-out: EC50 of FabI inhibition; cited from earlier work.
The subject of series [11] is human liver cell line Huh7. The settings on record: cited from earlier work.
Another series deals with red blood cells. The settings on record: cited from earlier work.
Another series relates to normal human cells TIG-1. As to conditions: read-out: 50% lethal concentration (LC50), TIG-1; cited from earlier work.
The subject of the next series is normal human cells HUVE. As to conditions: read-out: 50% lethal concentration (LC50), HUVE; cited from earlier work.
The subject of another series is Pf3D7. Further details: method as in PMID 19015351. The settings on record: read-out: antiplasmodial potency Pf3D7; cited from earlier work.
The next series concerns PfDd2. More on the design: method as in PMID 19015351. The settings on record: read-out: antiplasmodial potency PfDd2; cited from earlier work.
[12] abbreviates: 3D7, isolated compounds and reference drugs (Table 3), 72 h incubation, read-out: EC50 (μM) Pf3D7.
[13] abbreviates: DD2, isolated compounds and reference drugs (Table 3), 72 h incubation, read-out: EC50 (μM) PfDd2.
Where [14] appears, read: DD2, 72 h, read-out: EC50 (μM) PfDd2.

For the molecule `C[C@@H]1CC[C@H]2[C@@H](C)C(=O)O[C@@H]3O[C@@]4(C)CC[C@@H]1[C@]32OO4` [Artemisinin, reference compound], the EC50 in [1] (3D7, Table 1 reference drugs, 72 h incubation, read-out: EC50 Pf3D7, reference drugs) was found to be 0.014 ± 0.001 µM; in series [1] (setting [12]), 0.014 ± 0.001 µM; in series [2] (DD2, Table 1 reference drugs, 72 h incubation, read-out: EC50 PfDd2, reference drugs) it was 0.018 ± 0.003 µM; in series [2] (setting [13]), 0.018 ± 0.003 µM.
As to `CCN(CC)CCCC(C)Nc1ccnc2cc(Cl)ccc12` (stereo not drawn) [Chloroquine, reference compound], the EC50 in series [1] (3D7, 72 h, read-out: EC50 (μM) Pf3D7) is 0.018 ± 0.002 µM; in [1] (3D7, 72 h, read-out: EC50 Pf3D7, reference drugs (μM)), 0.018 ± 0.002 µM; in series [2] (setting [14]) it was 0.449 ± 0.065 µM; in series [2] (DD2, 72 h, read-out: EC50 PfDd2, reference drugs (μM)), 0.449 ± 0.065 µM.
With `O=c1cc(-c2ccc(O)cc2)oc2cc(O)cc(O)c12` [Compound 1, apigenin], the EC50 is 19 ± 0.72 µM in [1] (setting [12]); 16.4 ± 0.52 µM in series [2] (setting [13]); 19 µM in series [5]; 28.5 µM in series [6]; 20 ± 3 µM in [7]; 13 ± 2 µM in [8]. Moreover, the EC50 in the series on FabI was 50 µM. Besides, the CC50 at 48 h (in “in vitro”; in [4]) was over 185 µM throughout. For the same molecule, in [3], the “SI (selectivity index)” value was “greater than 9”. For the same molecule, the “EC50 against chloroquine-sensitive strain D10” value in series [9] was 25.4 ± 7.9 µg/mL (≈ 94 µM). Further, in series [10], the “EC50 against resistant strain W2” value is 20.2 ± 6.4 µg/mL (≈ 74.7 µM). Further, the figures for the “suppression of P. berghei parasiteamia” value in the series on P. berghei (15 mg/kg/day), in the series with P. berghei (35 mg/kg/day) and in the series with P. berghei (70 mg/kg/day) were 49.23%, 50.3% and 69.74%, respectively. Further, the “cytotoxicity on Huh7, in words” value in [11] is listed as “no signs of cytotoxicity”. The “membrane disruption on red blood cells, in words” value in the series on red blood cells is reported as “no signs”. Also, the CC50 in the series with normal human cells TIG-1 and in the series with normal human cells HUVE was 110 µM throughout.
`Oc1ccc([C@H]2Oc3cc(O)cc(O)c3C[C@@H]2O)cc1` [Compound 2, afzelechin]: the EC50 in [1] (setting [12]) and in series [2] (setting [13]) was over 200 µM in each case.
As for `O=c1c(O)c(-c2ccc(O)cc2)oc2cc(O)cc(O)c12` [Compound 3, kaempferol], the EC50 in series [1] (setting [12]) and in series [2] (setting [13]) was over 200 µM in each case.
For `C=C(C)[C@@H]1CC[C@]2(C)CC[C@]3(C)C(CCC4[C@@]5(C)C[C@H](O)[C@H](O)C(C)(C)C5CC[C@]43C)C12` (stereo partly drawn) [Compound 4, 2β,3β-dihydroxylup-20-ene], the EC50 in series [1] (setting [12]) and in series [2] (setting [14]) was over 200 µM each time.
With `COc1c(O)cc2c(=O)oc3c(OC)c(O)cc4c(=O)oc1c2c34` [Compound 6, 3,3′-O-dimethylellagic acid], the EC50 in series [1] (setting [12]) was 4.27 ± 0.05 µM; in [2] (setting [13]), 1.36 ± 0.47 µM. Moreover, the CC50 at 48 h (in “in vitro”; in series [4]) was over 152 µM throughout. Besides, the “SI (selectivity index)” value in [3] was “greater than 9”.
Take `COc1cc([C@@H]2c3cc4c(cc3[C@H](O)[C@H]3COC(=O)[C@H]23)OCO4)cc(OC)c1OC` [Podophyllotoxin, reference compound]: the CC50 at 48 h is 1.89 µg/mL and 4.56 µM in the series “in vitro”; 0.76 µg/mL and 1.83 µM in series [4].
For the molecule `O=c1oc2c(O)c(O)cc3c(=O)oc4c(O)c(O)cc1c4c23` [ellagic acid], the EC50 in the series with Pf3D7 is 0.819 µM; in the series on PfDd2 it was 0.351 µM.
